Laboratory results: US8853257B2, “Succinimide derivatives as ocular hypotensive agents” (priority 2005, dated 2014)
Several values for one entry are separate records, joined by “and”; a condition that tells them apart may be missing. Identical values can stand only once.

Tests used:
[1] = test system: Dark Agauti (DA) pigmented rats; experiment: Effect of topical ethosuximide on intraocular pressure in rats (Tono-Pen); format: in vivo; conditions: for IOP, treated eye (T), individual rats: one value per rat; for IOP, treated eye (T), Average X: rats
Description: Preliminary ocular pharmacodynamic studies were conducted to study the effect of ethosuximide on the intraocular pressure in rats by measuring IOP before and after administration of ethosuximide. IOP measurements were taken by a tonopen instrument. Ethosuximide was applied as a viscous solution obtained from Petnidan® capsules (Desitin, Hamburg, Germany). A recent study at Alcon Research laboratory (Pang I H, Wang W H, Clark A F: Acute effects of glaucoma medications on rat intraocular pressure, Exp Eye Res 2005, February; 80(2)207-14) has shown rats to be a proper animal model for glaucoma study. Another study at the Casey Eye Institute (Moore C G, Milne S T, Morrison J C: Noninvasive measurements of rat intraocular pressure with the Tono-Pen. Invest. Opthalmol. Vis. Sci. 1993 February; 34(2)363-9) has shown that a tonopen can be used reliably to measure IOP in normal rat eye.
Six Dark Agauti (DA) pigmented rats, (250-300 g in weight) were slightly sedated with 1.5-2 mg (0.15-0.2 ml) of intraperitoneal xylazine. One eye of each rat was randomly selected to receive topical administration of 50 µl of 250 mg/0.2 ml ethosuximide solution (content of Petnidan capsules). The second (control) eye received 50 µl of viscoelastic solution without the active ingredient (Viscotears™ manufactured by Novartis, Switzerland). At t=0 (immediately before) and at 30, 60 and 120 minutes after administration, topical anesthetic benoxinate was applied to both eyes and the intraocular pressures (IOP) were measured by a Tono-Pen XL tonometer (Medtronics). IOP values were recorded as the mean value of 6-10 successive measurements to minimize variability. The code, namely which eye of a pair was treated, was unknown to the technician who performed the IOP measurements. One rat expired after 1 hour due to excessive sedation. Five rats completed the experiment. In 2 out of 6 eyes that received the drug (vs. 1 of 6 eyes that were administered viscoelastic vehicle) a mild to moderate limbal vascular congestion was noticed, which tended to subside at 60 minutes.
At the end of the experiment, the code was broken and the IOP values in control and treated eyes were compared by statistical analysis.

[2] = test system: normo-tensive New Zealand White (NZW) rabbits; experiment: Effect of topical ethosuximide on intraocular pressure in rabbits (Tono-Pen); format: in vivo; conditions: for IOP, treated eye (T), individual rabbits: one value per rabbit
Description: Another study was conducted, in order to study the effect of ethosuximide on the intraocular pressure in rabbits by measuring IOP before and after administration of ethosuximide. IOP measurements were taken by a tonopen instrument. Ethosuximide was applied as a viscous solution obtained from Petnidan® capsules (Desitin, Hamburg, Germany).
Five fully awake, normo-tensive New Zealand White (NZW) rabbits, (each approximately 3.0 kg in weight) were used in this study. One eye of each rabbit was randomly selected to receive topical administration of 50 μl of 250 mg/0.2 ml ethosuximide solution (content of Petnidan capsules). The second (control) eye received 50 μl of viscoelastic solution without the active ingredient (Viscotears™ manufactured by Novartis, Switzerland). At t=0 (baseline, immediately before) and at 0.5, 1, 2, 4 and 6 hours after administration, topical anesthetic benoxinate was applied to both eyes and the intraocular pressures were measured by a Tono-Pen XL tonometer (Medtronics). IOP values were recorded as the mean value of 6-10 successive measurements to minimize variability. The code, namely which eye of a pair was treated, was (unknown to the technician who performed the IOP measurements. In 3 out of 5 eyes that received the drug (vs. 1 of 5 eyes that were administered viscoelastic vehicle) a mild to moderate limbal vascular congestion was noticed, which tended to subside at 60 minutes. In one treated eye the congestion persisted for two hours. At the end of the experiment, the code was broken and the IOP values in control and treated eyes were compared. The results are summarized in Table 2.

[3] = 60 min after topical administration
[4] = 120 min after topical administration

`CCC1(C)CC(=O)NC1=O` (centres unmarked) [ethosuximide] was tested, and the “IOP, treated eye (T), individual rats” value ([1]; 30 min after topical 50 ul of 250 mg/0.2 ml ethosuximide solution) was 17 mmHg and 16 mmHg and 15 mmHg and 15.3 mmHg and 20.5 mmHg and 22 mmHg, the “IOP, treated eye (T), Average X” value ([1]; 30 min after topical administration) was 17.6 mmHg and the “IOP, treated eye (T), individual rats” value [1, 3] was 21.3 mmHg (2×) and 30 mmHg and 18 mmHg and 14.6 mmHg. The “IOP, treated eye (T), Average X” value [1, 3] was 21.0 mmHg, the “IOP, treated eye (T), individual rats” value [1, 4] was 22 mmHg and 17 mmHg and 19 mmHg and 20.5 mmHg and 20.2 mmHg and the “IOP, treated eye (T), Average X” value [1, 4] was 19.7 mmHg. For the same compound, the “eyes with mild to moderate limbal vascular congestion” value ([1]; rat eyes that received the drug (vs. 1 of 6 vehicle eyes), tended to subside at 60 minutes) was 2 out of 6, the “IOP, treated eye (T), individual rabbits” value ([2]; 0.5 hour after topical 50 μl of 250 mg/0.2 ml ethosuximide solution) was 17.3 mmHg and 18.3 mmHg and 16.3 mmHg and 19.7 mmHg and 20.0 mmHg and the “IOP, treated eye (T), Mean” value ([2]; 0.5 hour, rabbits) was 18.3 mmHg. For the same compound, the “IOP, treated eye (T), individual rabbits” value ([2]; 1 hour after topical administration) was 12.8 mmHg and 16.0 mmHg and 15.0 mmHg and 19.7 mmHg and 18.5 mmHg, the “Δ IOP, difference in mean IOP (T − C)” value ([2]; 1 hour, p .557) was −0.6 mmHg and the “IOP, treated eye (T), Mean” value ([2]; 1 hour, rabbits) was 16.0 mmHg. For the same compound, the “IOP, treated eye (T), individual rabbits” value ([2]; 2 hours after topical administration) was 17.3 mmHg and 20.0 mmHg and 19.6 mmHg and 16.3 mmHg and 19.8 mmHg, the “Δ IOP vs t = o, mean IOP of treated eyes” value ([2]; 2 hours versus baseline, p .420) was −1.4 mmHg and the “IOP, treated eye (T), Mean” value ([2]; 2 hours, rabbits) was 18.6 mmHg. For the same compound, the “IOP, treated eye (T), individual rabbits” value ([2]; 4 hours after topical administration) was 15.5 mmHg and 15.8 mmHg and 13.0 mmHg and 12.5 mmHg and 17.5 mmHg, the “IOP, treated eye (T), Mean” value ([2]; 4 hours, rabbits) was 14.9 mmHg and the “IOP, treated eye (T), individual rabbits” value ([2]; 6 hours after topical administration) was 19.5 mmHg and 20.0 mmHg and 13.5 mmHg and 19.4 mmHg and 16.0 mmHg. For the same compound, the “Δ IOP vs t = o, mean IOP of treated eyes” value ([2]; 6 hours versus baseline, p .404) was −2.3 mmHg, the “Δ IOP, difference in mean IOP (T − C)” value ([2]; 6 hours, p .920) was “+0.1 mmHg” and the “IOP, treated eye (T), Mean” value ([2]; 6 hours, rabbits) was 17.7 mmHg. For the same compound, the “eyes with mild to moderate limbal vascular congestion” value ([2]; rabbit eyes that received the drug (vs. 1 of 5 vehicle eyes), tended to subside at 60 minutes) was 3 out of 5 and the “treated eyes in which the congestion persisted for two hours” value ([2]; rabbits) was “one”.
